{"source": "ChEMBL document CHEMBL1150292", "about": "“4-benzyl-1H-imidazoles with oxazoline termini as histamine H3 receptor agonists” (J Med Chem, 2008)", "key": {"Histamine H3 receptor [1]": {"molecular_target": "T1, Histamine H3 receptor (Homo sapiens, UniProt Q9Y5N1)", "T1 sequence (Q9Y5N1 whole entry)": "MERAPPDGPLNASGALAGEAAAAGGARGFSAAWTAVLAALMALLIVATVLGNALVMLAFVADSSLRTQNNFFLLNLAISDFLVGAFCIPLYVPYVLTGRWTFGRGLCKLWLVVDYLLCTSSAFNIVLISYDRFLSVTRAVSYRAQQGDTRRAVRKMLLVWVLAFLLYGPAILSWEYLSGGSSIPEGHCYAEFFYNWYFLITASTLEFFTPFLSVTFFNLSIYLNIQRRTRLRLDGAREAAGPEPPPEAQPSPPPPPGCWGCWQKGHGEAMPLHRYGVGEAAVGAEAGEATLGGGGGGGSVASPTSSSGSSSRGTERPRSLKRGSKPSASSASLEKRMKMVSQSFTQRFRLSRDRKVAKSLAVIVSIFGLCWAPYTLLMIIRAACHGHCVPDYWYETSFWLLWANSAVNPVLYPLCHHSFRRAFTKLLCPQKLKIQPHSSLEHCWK", "assay": "Displacement of [3H]N-alpha-methylhistamine from human histamine H3 receptor expressed in CHO cells", "format": "cell-based"}, "Histamine H3 receptor [2]": {"molecular_target": "T1, Histamine H3 receptor", "assay": "Agonist activity at human histamine H3 receptor assessed as effect on [35S]GTPgammaS binding", "format": "functional"}, "Histamine H3 receptor [3]": {"molecular_target": "T2, Histamine H3 receptor (Cavia porcellus, UniProt Q9JI35)", "T2 sequence (Q9JI35 whole entry)": "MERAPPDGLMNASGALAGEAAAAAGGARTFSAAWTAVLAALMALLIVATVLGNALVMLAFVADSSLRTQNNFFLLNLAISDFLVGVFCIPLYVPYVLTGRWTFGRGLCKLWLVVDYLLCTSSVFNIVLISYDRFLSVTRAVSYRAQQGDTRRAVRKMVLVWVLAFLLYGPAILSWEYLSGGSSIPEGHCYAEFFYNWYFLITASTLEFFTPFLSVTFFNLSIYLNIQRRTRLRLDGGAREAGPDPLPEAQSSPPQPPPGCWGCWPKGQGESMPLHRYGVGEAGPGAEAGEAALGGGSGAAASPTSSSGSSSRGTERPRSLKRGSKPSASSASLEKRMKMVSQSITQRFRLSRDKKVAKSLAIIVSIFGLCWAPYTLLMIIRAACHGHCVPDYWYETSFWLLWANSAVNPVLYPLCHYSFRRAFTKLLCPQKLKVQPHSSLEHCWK", "assay": "Antagonist activity at guinea pig histamine H3 receptor assessed as inhibition of electrically induced twitch contraction", "format": "functional", "conditions": "read-out: pA2 (converted)"}, "Cytochrome P450 2D6": {"molecular_target": "Cytochrome P450 2D6 (Homo sapiens, UniProt P10635)", "sequence (P10635 whole entry)": "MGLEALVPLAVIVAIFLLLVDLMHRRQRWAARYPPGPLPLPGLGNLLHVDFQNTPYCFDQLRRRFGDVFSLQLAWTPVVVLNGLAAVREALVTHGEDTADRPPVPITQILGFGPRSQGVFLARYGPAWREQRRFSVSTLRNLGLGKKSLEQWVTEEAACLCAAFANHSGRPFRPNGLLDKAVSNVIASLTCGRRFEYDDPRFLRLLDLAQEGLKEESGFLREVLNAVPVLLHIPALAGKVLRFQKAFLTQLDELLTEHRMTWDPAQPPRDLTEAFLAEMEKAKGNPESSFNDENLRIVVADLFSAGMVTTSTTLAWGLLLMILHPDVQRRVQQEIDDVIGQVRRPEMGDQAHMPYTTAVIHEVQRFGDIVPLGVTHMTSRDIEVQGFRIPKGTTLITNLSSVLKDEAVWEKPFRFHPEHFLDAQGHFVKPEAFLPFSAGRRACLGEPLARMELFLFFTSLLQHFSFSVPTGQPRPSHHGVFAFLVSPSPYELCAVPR", "assay": "Inhibition of CYP2D6 in human liver microsomes assessed as dextromethorphan O-demethylase activity", "format": "ADME, Microsome"}, "[4]": {"assay": "Inhibition of […] in human liver microsomes assessed as midazolam 1'-hydroxylase activity", "format": "ADME, Microsome"}, "[5]": {"molecular_target": "Histamine H1 receptor (Homo sapiens) (UniProt P35367)", "sequence (P35367 whole entry)": "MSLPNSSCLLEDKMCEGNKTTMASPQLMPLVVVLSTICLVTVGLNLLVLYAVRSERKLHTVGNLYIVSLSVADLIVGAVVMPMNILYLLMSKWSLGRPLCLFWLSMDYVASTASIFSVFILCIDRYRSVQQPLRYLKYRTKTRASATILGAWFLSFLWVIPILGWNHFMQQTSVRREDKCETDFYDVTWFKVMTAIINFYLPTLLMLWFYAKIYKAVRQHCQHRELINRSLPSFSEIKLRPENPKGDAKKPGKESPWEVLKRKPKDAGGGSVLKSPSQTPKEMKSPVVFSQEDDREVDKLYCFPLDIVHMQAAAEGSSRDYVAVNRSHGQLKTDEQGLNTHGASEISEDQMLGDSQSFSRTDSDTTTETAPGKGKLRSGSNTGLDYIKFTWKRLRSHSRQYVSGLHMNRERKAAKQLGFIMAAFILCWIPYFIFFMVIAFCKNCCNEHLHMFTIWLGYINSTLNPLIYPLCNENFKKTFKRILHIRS", "assay": "Inhibition of histamine H1 receptor at 10 uM"}, "[6]": {"molecular_target": "Histamine H2 receptor (Homo sapiens) (UniProt P25021)", "sequence (P25021 whole entry)": "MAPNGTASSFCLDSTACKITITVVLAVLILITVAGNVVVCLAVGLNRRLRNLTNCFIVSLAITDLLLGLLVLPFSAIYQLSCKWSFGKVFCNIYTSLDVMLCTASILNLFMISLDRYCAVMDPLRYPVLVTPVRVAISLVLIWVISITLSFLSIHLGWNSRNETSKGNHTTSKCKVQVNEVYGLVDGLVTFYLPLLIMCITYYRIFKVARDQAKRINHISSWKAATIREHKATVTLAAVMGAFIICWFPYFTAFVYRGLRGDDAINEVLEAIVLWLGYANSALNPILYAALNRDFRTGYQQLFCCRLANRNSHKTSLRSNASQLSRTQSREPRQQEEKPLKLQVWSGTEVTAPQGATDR", "assay": "Inhibition of histamine H2 receptor at 10 uM"}, "[7]": {"molecular_target": "Histamine H3 receptor (Rattus norvegicus) (UniProt Q9QYN8)", "sequence (Q9QYN8 whole entry)": "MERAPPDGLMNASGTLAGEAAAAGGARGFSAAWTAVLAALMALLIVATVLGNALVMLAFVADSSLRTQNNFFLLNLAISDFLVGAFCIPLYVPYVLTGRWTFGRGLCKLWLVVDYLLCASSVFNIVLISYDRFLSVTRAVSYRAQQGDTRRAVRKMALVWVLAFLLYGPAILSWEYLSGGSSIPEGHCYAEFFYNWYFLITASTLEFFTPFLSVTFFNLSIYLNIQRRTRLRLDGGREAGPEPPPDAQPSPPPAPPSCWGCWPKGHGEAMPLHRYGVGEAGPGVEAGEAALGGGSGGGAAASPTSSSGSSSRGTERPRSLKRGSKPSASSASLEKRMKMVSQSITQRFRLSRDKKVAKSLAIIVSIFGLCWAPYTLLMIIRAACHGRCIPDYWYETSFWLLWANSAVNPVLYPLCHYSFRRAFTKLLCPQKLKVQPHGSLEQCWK", "conditions": "Cortex"}, "[8]": {"molecular_target": "Histamine H3 receptor (Cavia porcellus) (UniProt Q9JI35)", "sequence (Q9JI35 whole entry)": "as the sequence (Q9JI35 whole entry) above", "conditions": "Ileum"}, "Histamine H3 receptor [9]": {"molecular_target": "T1, Histamine H3 receptor", "assay": "Agonist activity at human histamine H3 receptor assessed as beta galactosidase activity", "format": "functional"}, "Histamine H3 receptor [10]": {"molecular_target": "Histamine H3 receptor (Rattus norvegicus, UniProt Q9QYN8)", "sequence (Q9QYN8 whole entry)": "as the sequence (Q9QYN8 whole entry) above", "assay": "Agonist activity at histamine H3 receptor in rat cortex"}, "Histamine H4 receptor [11]": {"molecular_target": "T3, Histamine H4 receptor (Homo sapiens, UniProt Q9H3N8)", "T3 sequence (Q9H3N8 whole entry)": "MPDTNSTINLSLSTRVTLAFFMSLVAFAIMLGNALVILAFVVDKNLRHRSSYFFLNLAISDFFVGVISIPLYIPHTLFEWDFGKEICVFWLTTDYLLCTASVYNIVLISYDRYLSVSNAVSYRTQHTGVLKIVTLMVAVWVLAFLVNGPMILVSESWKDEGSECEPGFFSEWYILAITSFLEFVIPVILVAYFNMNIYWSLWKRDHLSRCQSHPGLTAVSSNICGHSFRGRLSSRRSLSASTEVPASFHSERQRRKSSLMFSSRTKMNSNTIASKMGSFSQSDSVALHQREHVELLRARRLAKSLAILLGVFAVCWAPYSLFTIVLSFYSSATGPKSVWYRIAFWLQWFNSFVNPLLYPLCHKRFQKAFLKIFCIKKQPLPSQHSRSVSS", "assay": "Displacement of [3H]histamine from human histamine H4 receptor expressed in CHO cells", "format": "cell-based"}, "Histamine H3 receptor [12]": {"molecular_target": "T2, Histamine H3 receptor", "assay": "Activity at histamine H3 receptor in guinea pig ileum", "format": "tissue-based"}, "Histamine H4 receptor [13]": {"molecular_target": "T3, Histamine H4 receptor", "assay": "Displacement of [3H]histamine from human histamine H4 receptor expressed in CHO cells at 10 uM", "format": "cell-based"}}}
{"smiles": "c1ccc(C[C@@H]2COC(c3cccc(Cc4cnc[nH]4)c3)=N2)cc1", "values": [{"measurement": "Ki", "setting": "Histamine H3 receptor [1]", "value": 89.1, "unit": "nM"}, {"measurement": "EC50", "setting": "Histamine H3 receptor [2]", "value": 79.4, "unit": "nM"}, {"measurement": "Kb", "setting": "Histamine H3 receptor [3]", "value": 2240, "unit": "nM"}]}
{"smiles": "C(#Cc1cccc(Cc2c[nH]cn2)c1)c1ccccc1", "values": [{"measurement": "Ki", "setting": "Histamine H3 receptor [1]", "value": 1.82, "unit": "nM"}, {"measurement": "IC50", "setting": "Cytochrome P450 2D6", "value": 488, "unit": "nM"}, {"measurement": "IC50", "setting": "[4]", "value": 2760, "unit": "nM"}]}
{"smiles": "CCCC#Cc1cccc(Cc2c[nH]cn2)c1", "values": [{"measurement": "Ki", "setting": "Histamine H3 receptor [1]", "value": 3.16, "unit": "nM"}, {"measurement": "IC50", "setting": "Cytochrome P450 2D6", "value": 644, "unit": "nM"}, {"measurement": "IC50", "setting": "[4]", "value": 1640, "unit": "nM"}]}
{"smiles": "CC(C)(C)C#Cc1ccc(Cc2c[nH]cn2)cc1", "values": [{"measurement": "Ki", "setting": "Histamine H3 receptor [1]", "value": 537, "unit": "nM"}]}
{"smiles": "CC(C)(C)CC(=O)c1cccc(Cc2c[nH]cn2)c1", "values": [{"measurement": "inhibition", "setting": "[5]", "value": "< 20", "unit": "%"}, {"measurement": "inhibition", "setting": "[6]", "value": "< 40", "unit": "%"}, {"measurement": "IC50", "setting": "[4]", "value": 1100, "unit": "nM"}]}
{"smiles": "C[C@@H](N)Cc1c[nH]cn1", "values": [{"measurement": "pD2", "setting": "[7]", "value": 8.4}]}
{"smiles": "CNCCc1cnc[nH]1", "values": [{"measurement": "pD2", "setting": "[8]", "value": 7.8}]}
{"smiles": "Brc1ccc(Cc2c[nH]cn2)cc1", "values": [{"measurement": "Ki", "setting": "Histamine H3 receptor [1]", "value": 417, "unit": "nM"}, {"measurement": "EC50", "setting": "Histamine H3 receptor [2]", "value": 631, "unit": "nM"}]}
{"smiles": "CC1(C)COC(c2cccc(Cc3c[nH]cn3)c2)=N1", "values": [{"measurement": "Ki", "setting": "Histamine H3 receptor [1]", "value": 3.98, "unit": "nM"}, {"measurement": "EC50", "setting": "Histamine H3 receptor [2]", "value": 15.8, "unit": "nM"}]}
{"smiles": "CCCCc1c[nH]cn1", "values": [{"measurement": "Ki", "setting": "Histamine H3 receptor [1]", "value": 25.1, "unit": "nM"}, {"measurement": "EC50", "setting": "Histamine H3 receptor [9]", "value": 31.6, "unit": "nM"}]}
{"smiles": "Nc1ccc(Cc2c[nH]cn2)cc1", "values": [{"measurement": "Ki", "setting": "Histamine H3 receptor [1]", "value": 257, "unit": "nM"}]}
{"smiles": "c1ccc(COCCCc2c[nH]cn2)cc1", "note": "[PROXYFAN]", "values": [{"measurement": "Ki", "setting": "Histamine H3 receptor [10]", "value": 10, "unit": "nM"}]}
{"smiles": "CC1(C)CN=C(c2cccc(Cc3cnc[nH]3)c2)OC1", "values": [{"measurement": "Ki", "setting": "Histamine H3 receptor [1]", "value": 2510, "unit": "nM"}]}
{"smiles": "c1cc(Cc2cnc[nH]2)cc(-c2ccncc2)c1", "values": [{"measurement": "Ki", "setting": "Histamine H3 receptor [1]", "value": 427, "unit": "nM"}]}
{"smiles": "CC(C)(C)CC(=O)c1cccc(Cc2cnc[nH]2)c1", "values": [{"measurement": "Ki", "setting": "Histamine H3 receptor [1]", "value": 32.4, "unit": "nM"}, {"measurement": "EC50", "setting": "Histamine H3 receptor [2]", "value": 79.4, "unit": "nM"}, {"measurement": "Ki", "setting": "Histamine H4 receptor [11]", "value": 5.62, "unit": "nM"}, {"measurement": "IC50", "setting": "Cytochrome P450 2D6", "value": 1930, "unit": "nM"}, {"measurement": "Kb", "setting": "Histamine H3 receptor [3]", "value": 955, "unit": "nM"}]}
{"smiles": "c1cc(Cc2c[nH]cn2)cc(C2=NCC3(CCCCC3)O2)c1", "values": [{"measurement": "Ki", "setting": "Histamine H3 receptor [1]", "value": 56.2, "unit": "nM"}]}
{"smiles": "c1ccc(Cc2c[nH]cn2)cc1", "values": [{"measurement": "Ki", "setting": "Histamine H3 receptor [1]", "value": 162, "unit": "nM"}]}
{"smiles": "c1nc(CC2CCNCC2)c[nH]1", "note": "[IMMEPIP]", "values": [{"measurement": "Ki", "setting": "Histamine H3 receptor [1]", "value": 0.407, "unit": "nM"}]}
{"smiles": "N#Cc1cccc(Cc2c[nH]cn2)c1", "values": [{"measurement": "Ki", "setting": "Histamine H3 receptor [1]", "value": 155, "unit": "nM"}]}
{"smiles": "C[C@H]1CNC[C@@H]1c1c[nH]cn1", "values": [{"measurement": "Ki", "setting": "Histamine H3 receptor [12]", "value": 2.51, "unit": "nM"}, {"measurement": "pD2", "setting": "[8]", "value": 7.5}]}
{"smiles": "CC(C)(C)CCC#C[C@@H]1C[C@H]1c1c[nH]cn1", "note": "(single isomer, unassigned) [CIPRALISANT]", "values": [{"measurement": "Ki", "setting": "Histamine H3 receptor [1]", "value": 3.98, "unit": "nM"}]}
{"smiles": "C(#Cc1cccc2ccccc12)c1cccc(Cc2c[nH]cn2)c1", "values": [{"measurement": "Ki", "setting": "Histamine H3 receptor [1]", "value": 1740, "unit": "nM"}]}
{"smiles": "CNCCc1c[nH]cn1", "values": [{"measurement": "Ki", "setting": "Histamine H3 receptor [12]", "value": 2.51, "unit": "nM"}]}
{"smiles": "c1ccc(-c2cccc(Cc3cnc[nH]3)c2)cc1", "values": [{"measurement": "Ki", "setting": "Histamine H3 receptor [1]", "value": 33.1, "unit": "nM"}, {"measurement": "EC50", "setting": "Histamine H3 receptor [2]", "value": 200, "unit": "nM"}]}
{"smiles": "CC1(C)COC(c2ccc(Cc3c[nH]cn3)cc2)=N1", "values": [{"measurement": "Ki", "setting": "Histamine H3 receptor [1]", "value": 2510, "unit": "nM"}, {"measurement": "IC50", "setting": "Cytochrome P450 2D6", "value": 543, "unit": "nM"}, {"measurement": "IC50", "setting": "[4]", "value": 2520, "unit": "nM"}, {"measurement": "inhibition", "setting": "Histamine H4 receptor [13]", "value": 17, "unit": "%"}]}
{"smiles": "CC(C)(C)C#Cc1cccc(Cc2c[nH]cn2)c1", "values": [{"measurement": "Ki", "setting": "Histamine H3 receptor [1]", "value": 4.47, "unit": "nM"}, {"measurement": "EC50", "setting": "Histamine H3 receptor [2]", "value": 7.94, "unit": "nM"}, {"measurement": "inhibition", "setting": "[5]", "value": "< 20", "unit": "%"}, {"measurement": "inhibition", "setting": "[6]", "value": "< 40", "unit": "%"}, {"measurement": "Ki", "setting": "Histamine H4 receptor [11]", "value": 5.62, "unit": "nM"}, {"measurement": "IC50", "setting": "Cytochrome P450 2D6", "value": 1780, "unit": "nM"}, {"measurement": "IC50", "setting": "[4]", "value": 1860, "unit": "nM"}, {"measurement": "Kb", "setting": "Histamine H3 receptor [3]", "value": 79.4, "unit": "nM"}]}
{"smiles": "c1cc(Cc2cnc[nH]2)cc(C2=NC(CC3CCCCC3)CO2)c1", "note": "(stereo unspecified)", "values": [{"measurement": "Ki", "setting": "Histamine H3 receptor [1]", "value": 708, "unit": "nM"}]}
{"smiles": "c1cc(Cc2cnc[nH]2)cc(C2=NC3(CCCC3)CO2)c1", "values": [{"measurement": "Ki", "setting": "Histamine H3 receptor [1]", "value": 39.8, "unit": "nM"}]}
{"smiles": "N#Cc1ccc(Cc2c[nH]cn2)cc1", "values": [{"measurement": "Ki", "setting": "Histamine H3 receptor [1]", "value": 813, "unit": "nM"}]}
{"smiles": "c1cc(Cc2cnc[nH]2)ccn1", "note": "[IMMETHRIDINE]", "values": [{"measurement": "EC50", "setting": "Histamine H3 receptor [9]", "value": 0.2, "unit": "nM"}]}
{"smiles": "c1ccc(-c2cccc(Cc3c[nH]cn3)c2)nc1", "values": [{"measurement": "Ki", "setting": "Histamine H3 receptor [1]", "value": 40.7, "unit": "nM"}]}
{"smiles": "CC1CC(C)(C)N=C(c2cccc(Cc3c[nH]cn3)c2)O1", "note": "(stereo unspecified)", "values": [{"measurement": "Ki", "setting": "Histamine H3 receptor [1]", "value": 1.26, "unit": "nM"}, {"measurement": "EC50", "setting": "Histamine H3 receptor [2]", "value": 2, "unit": "nM"}, {"measurement": "inhibition", "setting": "[5]", "value": "< 20", "unit": "%"}, {"measurement": "inhibition", "setting": "[6]", "value": "< 40", "unit": "%"}, {"measurement": "Ki", "setting": "Histamine H4 receptor [11]", "value": 8.32, "unit": "nM"}, {"measurement": "IC50", "setting": "Cytochrome P450 2D6", "value": 292, "unit": "nM"}, {"measurement": "IC50", "setting": "[4]", "value": 873, "unit": "nM"}, {"measurement": "Kb", "setting": "Histamine H3 receptor [3]", "value": 3.98, "unit": "nM"}]}
